These results are taken from patent US7708990B2, “Coenzyme Q compositions persisting in blood” (Kaneka Corporation, priority 2004, dated 2010).

As usually defined, the Cmax is the peak of the concentration-time curve. A word on the AUC: it is the area under the concentration-time curve, a measure of exposure.

This data set can be described thus: Plasma coenzyme Q10 levels after oral administration to rats (HPLC assay). The format is in vivo, male SD strain rats. The following applies: plasma coenzyme Q10 (reduced + oxidized), oral 100 mg/kg in soybean oil. The procedure: A solution of reduced coenzyme Q10 (containing 1% by weight of oxidized coenzyme Q10) in soybean oil (reduced coenzyme Q10/soybean oil solution=20 mg/ml) was orally administered to male SD strain rats (6 weeks of age) at a dose of reduced coenzyme Q10 (containing 1% by weight of oxidized coenzyme Q10) of 100 mg/kg and, after 0.5, 1, 2, 3, 4, 5, 6, 8, 12 and 24 hours after administration, blood samples were collected and used for assaying plasma coenzyme Q10 (reduced coenzyme Q10 and oxidized coenzyme Q10) (n=4). Plasma coenzyme Q10 was assayed by HPLC. Thus, coenzyme Q7 (0.003 mg), ethanol (1 ml), distilled water (1 ml) and ferric chloride (0.01%) were added to each rat plasma sample (0.2 ml) and, after mixing up, hexane (3 ml) was added thereto and coenzyme Q10 was extracted with shaking. […]
Reduced coenzyme Q10 (containing 3% by weight of oxidized coenzyme Q10) was administered in the same manner as in Example 1, and plasma coenzyme Q10 levels were determined.
Oxidized coenzyme Q10 was administered in the same manner as in Example 1, and plasma coenzyme Q10 levels were determined.
Reduced coenzyme Q10 (containing 5% by weight of oxidized coenzyme Q10) was administered in the same manner as in Example 1, and plasma coenzyme Q10 levels were determined.

Turning to `COC1=C(OC)C(=O)C(C/C=C(\C)CC/C=C(\C)CC/C=C(\C)CC/C=C(\C)CC/C=C(\C)CC/C=C(\C)CC/C=C(\C)CC/C=C(\C)CC/C=C(\C)CCC=C(C)C)=C(C)C1=O` [Comparative Example 1, Oxidized coenzyme Q10], the Cmax (n=4) is 1730 ng/mL. Where the note is “n=4, sampling up to 24 hours”, the AUC was determined as 12900 ng·h/mL.
